In series [1] the test system is HBV. Briefly: Anti-HBV activity, HepG2.2.15 stable transfected cell line, HBV DNA from secreted virions by realtime PCR. Format: cell-based, Hepatitis B virus (HBV). Conditions: HepG2.2.15 cells, 6 days of treatment.
Series [2] concerns HBV. Briefly: Anti-HBV activity, HepG2.117 inducibly HBV producing cell line (Tet-off), intracellular HBV DNA by realtime PCR. Format: cell-based, Hepatitis B virus (HBV). Conditions: HepG2.117 cells, 3 days of treatment.
Another series in a line: in vitro. Conditions: human.
Another series concerns HepG2 cells. As to the kind of experiment: Cytotoxicity in HepG2 cells, Resazurin assay. Conditions: read-out: HepG2 4 days CC50, 4 days incubation, Resazurin viability.
A short description of series [3]: Cytotoxicity in HepG2 cells, Resazurin assay. Conditions: human. For orientation: Resazurin is reduced to fluorescent resorufin, in cell work by metabolically active cells.
Where [4] appears, read: Hepatitis B virus, HepG2.2.15, 144 h.
Where [5] appears, read: Hepatitis B virus, HepG2.117, 72 h.

Where only a bound is given, the exact number is not on record here.

For orientation: EC50 means the concentration that produces a half-maximal response. The low end stands for a more potent agent, the high end for a less potent agent.

For `Cc1cc(NC(=O)[C@H]2C[C@@H]3CC[C@H]2N3S(=O)(=O)CC(C)C)ccc1F` (racemic) [Compound 30, N-(4-fluoro-3-methyl-phenyl)-7-isobutylsulfonyl-7-azabicyclo[2.2.1]heptane-3-carboxamide], the figures for the EC50 in the series with HBV [1] (setting [4]) and in the series on HBV [2] (setting [5]) were 0.61 µM and 4.7 µM, respectively. In the series “in vitro”, this compound returned a CC50 at 4 days of more than 25 µM.
On to `Cc1cc(NC(=O)[C@H]2CCN(S(C)(=O)=O)C2)ccc1F` [Compound 4], for which the EC50 came to 16.4 µM with HBV [1] and 10.7 µM in the series on HBV [2]. In addition, the CC50 with HepG2 cells is more than 25 µM.
As to `CCC(CC)S(=O)(=O)N1CC[C@H](C(=O)Nc2ccc(F)c(C)c2)C1` [Compound 19], the EC50 was determined as 8.4 µM in the series with HBV [1] and 2.9 µM with HBV [2]. Besides, in the series on HepG2 cells, the CC50 was more than 25 µM.
For the compound `Cc1cc(NC(=O)C2(F)CCN(S(=O)(=O)NC(C)C)C2)ccc1F` (racemic) [Compound 35b, 3-fluoro-N-(4-fluoro-3-methyl-phenyl)-1-(isopropylsulfamoyl)pyrrolidine-3-carboxamide], the EC50 with HBV [1] and in the series with HBV [2] was more than 5 µM in each case. Also, the CC50 with HepG2 cells is more than 25 µM.
On to `Cc1cc(NC(=O)[C@H]2CCN(C(=O)OC(C)C)C2)ccc1F` [Compound 21], for which the figures for the EC50 in the series with HBV [1] and with HBV [2] were 5.4 µM and 2.7 µM, respectively. In addition, the CC50 with HepG2 cells is more than 25 µM.
On the same counts, the results for `Cc1cc(NC(=O)[C@H]2CCN(S(=O)(=O)C(C)C)C2)ccc1F` [Compound 7] are 13.5 µM, 4.7 µM and more than 25 µM.
With `Cc1cc(NC(=O)[C@H]2CCN(S(=O)(=O)C3CCCCC3)C2)ccc1F` [Compound 23], the EC50 is 0.96 µM with HBV [1] and 1.4 µM in the series with HBV [2]. In addition, the CC50 in the series on HepG2 cells was more than 25 µM.
On the same counts, the results for `Cc1cc(NC(=O)C2CCN(S(=O)(=O)C(C)CC(C)C)C2)ccc1F` (mixture of isomers) [Compound 17] are 5.9 µM, 5.9 µM and more than 25 µM.
Regarding `Cc1cc(NC(=O)C2CCN(S(=O)(=O)C3CS(=O)(=O)CC3O)C2)ccc1F` (mixture of isomers) [Compound 15], the results for the EC50 in the series on HBV [1] and in the series with HBV [2] were 12.5 µM and 14.7 µM, respectively. For the same compound, in the series with HepG2 cells, the CC50 was more than 25 µM.
As for `Cc1cc(NC(=O)C2CN(S(=O)(=O)NC(C)C)C3CC23)ccc1F` (single isomer, unassigned) [Compound 36b, N-(4-fluoro-3-methyl-phenyl)-2-(isopropylsulfamoyl)-2-azabicyclo[3.1.0]hexane-4-carboxamide], the EC50 in the series with HBV [1] was 0.46 µM; with HBV [2], 0.38 µM. Also, the CC50 in the series with HepG2 cells was more than 25 µM.
On the same counts, the results for `Cc1cc(NC(=O)C2(C)CCN(S(=O)(=O)CC(C)C)C2)ccc1F` (racemic) [Compound 29b, N-(4-fluoro-3-methyl-phenyl)-1-isobutylsulfonyl-3-methyl-pyrrolidine-3-carboxamide] are 18.3 µM, 6.9 µM and more than 25 µM.
The like results for `Cc1cc(NC(=O)[C@H]2CCN(S(=O)(=O)C3CC3)C2)ccc1F` [Compound 5] were, in that order, 9.1 µM, 2 µM and more than 25 µM.
On the same counts, the results for `Cc1cc(NC(=O)[C@H]2CCN(C(=O)OC3COC3)C2)ccc1F` [Compound 20] are 16.1 µM, 4 µM and more than 25 µM.
For `COC(=O)N1CC[C@H](C(=O)Nc2ccc(F)c(C)c2)C1` [Compound 22], the results for the EC50 with HBV [1] and in the series on HBV [2] were 13.6 µM and 8.6 µM, respectively. For the same compound, in the series with HepG2 cells, the CC50 is more than 25 µM.
With `Cc1cc(NC(=O)C2CCN(S(=O)(=O)C3CCCCC3O)C2)ccc1F` (mixture of isomers) [Compound 16], the EC50 with HBV [1] stood at 3.5 µM; in the series on HBV [2], 2.5 µM. Moreover, the CC50 in the series on HepG2 cells is more than 25 µM.
For `Cc1cc(NC(=O)[C@H]2CCN(S(=O)(=O)N[C@@H]3c4ccccc4C[C@H]3O)C2)ccc1F` [Compound 37, (3S)—N-(4-fluoro-3-methyl-phenyl)-1-[[(1R,2R)-2-hydroxyindan-1-yl]sulfamoyl]pyrrolidine-3-carboxamide], the EC50 with HBV [1] (setting [4]) came out at 0.27 µM; in the series with HBV [2] (setting [5]), 0.53 µM. For the same compound, in series [3], the CC50 at 4 days was more than 25 µM.
In the case of `COCC(C)S(=O)(=O)N1CCC(C(=O)Nc2ccc(F)c(C)c2)C1` (mixture of isomers) [Compound 18], the EC50 with HBV [1] is 5.8 µM; with HBV [2], 5.3 µM. Besides, in the series on HepG2 cells, the CC50 was more than 25 µM.
On to `CCC(C)S(=O)(=O)N1CC[C@H](C(=O)Nc2ccc(F)c(C)c2)C1` (stereo partly drawn) [Compound 25, (3S)—N-(4-fluoro-3-methyl-phenyl)-1-sec-butylsulfonyl-pyrrolidine-3-carboxamide], for which the EC50 turned out to be 5.5 µM with HBV [1] (setting [4]) and 0.43 µM in the series with HBV [2] (setting [5]). Moreover, in series [3], the CC50 at 4 days is more than 25 µM.
The like results for `Cc1cc(NC(=O)[C@H]2CCN(S(=O)(=O)NC(C)CNC(=O)OC(C)(C)C)C2)ccc1F` (stereo partly drawn) [Compound 38, tert-butyl N-[2-[[(3S)-3-[(4-fluoro-3-methyl-phenyl)carbamoyl]pyrrolidin-1-yl]sulfonylamino]propyl]carbamate] were, in that order, 3.65 µM, 2.07 µM and more than 25 µM.
For the compound `Cc1cc(NC(=O)[C@H]2CCN(S(=O)(=O)NC3(CCO)COC3)C2)ccc1F` [Compound 47, (3S)—N-(4-fluoro-3-methyl-phenyl)-1-[[3-(2-hydroxyethyl)oxetan-3-yl]sulfamoyl]pyrrolidine-3-carboxamide], the EC50 with HBV [1] (setting [4]) was determined as 0.065 µM; in the series with HBV [2] (setting [5]), 0.091 µM. The compound further returned a CC50 at 4 days in series [3] of more than 25 µM.
Take `Cc1cc(NC(=O)[C@H]2CCN(S(=O)(=O)NC3(C)COC3)C2)ccc1F` [Compound 34, (3S)—N-(4-fluoro-3-methyl-phenyl)-1-[(3-methyloxetan-3-yl)sulfamoyl]pyrrolidine-3-carboxamide]: the EC50 with HBV [1] (setting [4]) and in the series with HBV [2] (setting [5]) was 0.11 µM throughout. The compound further displayed a CC50 at 4 days in series [3] of more than 25 µM.
As to `COC(=O)NC[C@@H](C)NS(=O)(=O)N1CC[C@H](C(=O)Nc2ccc(F)c(C)c2)C1` [Compound 51, methyl N-[(2R)-2-[[(3S)-3-[(4-fluoro-3-methyl-phenyl)carbamoyl]pyrrolidin-1-yl]sulfonylamino]propyl]carbamate], the EC50 in the series with HBV [1] (setting [4]) turned out to be 0.15 µM; in the series on HBV [2] (setting [5]), 0.057 µM. For the same compound, in series [3], the CC50 at 4 days was more than 25 µM.
For the compound `Cc1cc(NC(=O)C2(C)CCN(S(=O)(=O)CC(C)C)C2)ccc1F` (racemic) [Compound 29a, N-(4-fluoro-3-methyl-phenyl)-1-isobutylsulfonyl-3-methyl-pyrrolidine-3-carboxamide], the EC50 in the series with HBV [1] and in the series with HBV [2] was more than 25 µM each time. Also, the CC50 with HepG2 cells is more than 25 µM.
For the compound `Cc1cc(NC(=O)C2CCN(S(=O)(=O)C3CCOC3)C2)ccc1F` (mixture of isomers) [Compound 12], the EC50 in the series on HBV [1] is 4.1 µM; in the series on HBV [2], 2.3 µM. Moreover, the CC50 in the series with HepG2 cells is more than 25 µM.
For the compound `Cc1cc(NC(=O)C2CCN(S(=O)(=O)C3CCS(=O)(=O)C3)C2)ccc1F` (mixture of isomers) [Compound 13], the EC50 came to 4.6 µM in the series on HBV [1] and 3.4 µM in the series with HBV [2]. For the same compound, in the series with HepG2 cells, the CC50 was more than 25 µM.
The like results for `Cc1cc(NC(=O)C2(F)CCN(S(=O)(=O)N[C@H]3CCOC3)C2)ccc1F` (single isomer, unassigned) [Compound 42b] were, in that order, 3.25 µM, 1.69 µM and more than 25 µM.
On to `COCCS(=O)(=O)N1CC[C@H](C(=O)Nc2ccc(F)c(C)c2)C1` [Compound 14], for which the figures for the EC50 in the series on HBV [1] and in the series with HBV [2] were 1.9 µM and 1.5 µM, respectively. In the series on HepG2 cells, the CC50 was more than 25 µM.

The record behind these values is US9895349B2, “N-phenyl-carboxamide derivatives and the use thereof as medicaments for the treatment of hepatitis B” (priority 2013, dated 2018).
